A word on the GI50: it is the concentration that inhibits growth by half.

From ChEMBL document CHEMBL1201862, “PubChem BioAssay data set” (2004) come the findings set out here.

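Compound exposure: 48 hours, 5 concentrations, 96-well plates. GI50 is the concentration that inhibits growth by half.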 The source made the active and inactive calls. Rule as the data show it: active = GI50 up to about 1.1 µM and inactive = higher.

Test systems include HOP-18; SNB-78; DLD-1; DMS-273; DMS-114; M19-MEL; XF498; LXFL 529; RXF 631.
What all share (assay): DTP human tumour cell line panel, 48 h

Take `Cc1cccc(/C=N/C23CC4CC(CC(C4)C2)C3)c1`: the GI50 with HOP-18, in the test with SNB-78, in the test on DLD-1, in the test on DMS-273, in the test with DMS-114 and in the test with M19-MEL was > 100 µM (inactive) in each case. In addition, in the test with XF498, the GI50 was > 100 µM (inactive).

In the case of `COC(=O)/C(C)=C/[N+](=O)[O-]`, the GI50 in the test with HOP-18 is 18 µM (inactive); in the test on SNB-78, 21.1 µM (inactive); with DLD-1, 1.93 µM (inactive); with DMS-273, 17.8 µM (inactive); with DMS-114, 18.2 µM (inactive); with M19-MEL, 17.4 µM (inactive). The GI50 with XF498 is 14.3 µM (inactive); in the test on LXFL 529, 14 µM (inactive).

As for `CN1CCOC(c2ccccc2)O1` (stereo not drawn), the GI50 in the test on HOP-18, in the test on SNB-78, in the test with DLD-1, in the test on DMS-273, in the test with RXF 631 and in the test with DMS-114 was > 100 µM (inactive) in each case. The GI50 in the test with M19-MEL and with LXFL 529 was > 100 µM (inactive) each time.

Turning to `CC[C@@H](C)[C@H]([C@H](CC(=O)N1CCC[C@@H]1[C@@H](OC)[C@H](C)C(=O)N[C@H](Cc1ccccc1)c1nccs1)OC)N(C)C(=O)[C@H](NC(=O)[C@@H](C(C)C)N(C)C)C(C)C`, the GI50 in the test on HOP-18 is 0.00407 µM (active); with SNB-78, 0.00108 µM (active); in the test on DLD-1, 0.000387 µM (active); in the test on DMS-273 it was 0.000159 µM (active); in the test with RXF 631, 0.000461 µM (active); with DMS-114, 0.000288 µM (active). The GI50 is 0.000208 µM (active) in the test with M19-MEL and 0.000502 µM (active) in the test on LXFL 529.

For `COc1ccc(C2COc3c(ccc(OC)c3OC)C2=O)cc1OC` (stereo not drawn), the GI50 was > 100 µM (inactive) in the test on HOP-18; > 100 µM (inactive) in the test on SNB-78; > 100 µM (inactive) in the test on DLD-1; 68.7 µM (inactive) in the test on DMS-114; > 100 µM (inactive) in the test on M19-MEL; 94.8 µM (inactive) with XF498. Besides, in the test on LXFL 529, the GI50 is > 100 µM (inactive).

Turning to `COC[C@@H]1[C@H]2OC(C)(C)O[C@H]2C(=O)N1C(=O)c1ccc(OC)cc1`, the GI50 in the test with HOP-18, with SNB-78, in the test on DLD-1, in the test with DMS-273, in the test on DMS-114 and in the test on M19-MEL was > 100 µM (inactive) in each case. In addition, the GI50 in the test on XF498 and with LXFL 529 was > 100 µM (inactive) each time.

As for `CCCCCCCCCCCCCCCCCCOCC(COP(=O)([O-])OCC[N+](C)(C)C)OC` (stereo not drawn) [EDELFOSINE], the GI50 in the test on HOP-18 was 13.3 µM (inactive); in the test on SNB-78 it was 19.3 µM (inactive); in the test on DLD-1, 5.09 µM (inactive); in the test on DMS-273, 3.03 µM (inactive); with DMS-114, 13.4 µM (inactive); in the test with M19-MEL, 4.58 µM (inactive). Besides, the GI50 in the test with XF498 was 11.2 µM (inactive).

For `O=C1c2ccccc2C(=O)c2sc(Nc3ccccc3Cl)nc21`, the GI50 in the test with HOP-18 was 13.4 µM (inactive); in the test with SNB-78 it was 13.9 µM (inactive); in the test with DLD-1, 4.68 µM (inactive); in the test with DMS-273 it was 13.5 µM (inactive); with RXF 631, 18 µM (inactive); in the test on M19-MEL it was 1.62 µM (inactive). Further, the GI50 in the test on XF498 is 16 µM (inactive); with LXFL 529, 2.27 µM (inactive).

Consider `O=c1ccc2ccccc2c2ccccc12`, for which the GI50 with HOP-18 was 3.52 µM (inactive); with SNB-78, 4.07 µM (inactive); in the test on DLD-1, 3.39 µM (inactive); with DMS-273, 3.33 µM (inactive); with DMS-114, 2.41 µM (inactive); in the test with M19-MEL it was 3.15 µM (inactive). Also, the GI50 in the test on LXFL 529 was 2.95 µM (inactive).

For `COC(=O)N/N=C(/c1nc2ccc([N+](=O)[O-])cc2nc1O)C(O)c1ccc(OC)c(OC)c1` (stereo not drawn), the GI50 was > 100 µM (inactive) in the test on HOP-18; 28.4 µM (inactive) in the test with SNB-78; > 100 µM (inactive) with DLD-1; 25 µM (inactive) with DMS-273; 44.5 µM (inactive) in the test with RXF 631; 24.7 µM (inactive) with DMS-114. The results for the GI50 with M19-MEL, with XF498 and with LXFL 529 were > 100 µM (inactive), 59.2 µM (inactive) and 87.1 µM (inactive), respectively.

Turning to `Cc1cccc(NC(=O)C(=O)Cc2nc3ccccc3nc2O)c1C`, the GI50 in the test on HOP-18, with SNB-78, in the test on DLD-1, in the test on DMS-114, with M19-MEL and in the test with XF498 was > 100 µM (inactive) in each case. Moreover, the GI50 in the test on LXFL 529 was > 100 µM (inactive).

Take `CCOC(=O)[C@@]12C(C)=CC(=O)O[C@]1(C)C[C@H]2C#N`: the GI50 in the test on HOP-18 was 15.4 µM (inactive); in the test on SNB-78, > 100 µM (inactive); in the test on DLD-1, > 100 µM (inactive); in the test on DMS-273, > 100 µM (inactive); in the test with DMS-114, > 100 µM (inactive); in the test on M19-MEL it was > 100 µM (inactive). Also, in the test on LXFL 529, the GI50 is > 100 µM (inactive).

For the compound `O=C1CC2CC=C[C@H]3c4cc5c(cc4C(=O)N1C23)OCO5` (stereo partly drawn), the GI50 in the test on SNB-78, in the test with DLD-1, with DMS-273, in the test on DMS-114, with M19-MEL and with LXFL 529 was > 50 µM (inactive) each time.

Consider `CC1OC(CC(=O)O)Cc2c(O)c3c(c(O)c21)C(=O)C=C(C1=CC(=O)c2c(O)c4c(c(O)c2C1=O)CC(CC(=O)O)OC4C)C3=O` (stereo not drawn), for which the GI50 in the test with HOP-18 is 22 µM (inactive); in the test with SNB-78 it was 25.8 µM (inactive); in the test with DLD-1, 12.7 µM (inactive); in the test with DMS-273 it was 20.4 µM (inactive); in the test with DMS-114, 15 µM (inactive); in the test with M19-MEL, 20.1 µM (inactive). For the same compound, the values for the GI50 with XF498 and with LXFL 529 were 17.5 µM (inactive) and 8.81 µM (inactive), respectively.

Consider `CN(C)CCN(C)CC1COC(C)(C)O1` (stereo not drawn), for which the GI50 in the test on HOP-18, in the test on SNB-78, with DLD-1, in the test with DMS-273, in the test on M19-MEL and in the test on XF498 was > 100 µM (inactive) in each case. For the same compound, in the test on LXFL 529, the GI50 was > 100 µM (inactive).

On to `Nc1nc(N)c(-c2ccccc2)c(C(=O)Nc2ccc(Cl)c(Cl)c2)n1`, for which the GI50 in the test on HOP-18, in the test on SNB-78, in the test on DLD-1, with DMS-273, with RXF 631 and in the test on DMS-114 was > 100 µM (inactive) in each case. Further, the GI50 in the test on M19-MEL and in the test on LXFL 529 was > 100 µM (inactive) in each case.

As to `O=c1[nH]c(=O)n(C2CC(O)C(CO)O2)cc1C#Cc1ccc(C(F)(F)F)cc1` (stereo not drawn), the GI50 in the test with HOP-18, with DLD-1, with DMS-273, with RXF 631, in the test with DMS-114 and in the test on XF498 was > 100 µM (inactive) in each case. In the test on LXFL 529, the GI50 was > 100 µM (inactive).

For the compound `O=C1C(c2ccccc2)=C(c2ccccc2)C(c2ccc(-c3ccc(C4=C(c5ccccc5)C(=O)C(c5ccccc5)=C4c4ccccc4)cc3)cc2)=C1c1ccccc1`, the GI50 in the test with HOP-18, in the test on DLD-1, with DMS-273, with RXF 631, with DMS-114 and in the test on M19-MEL was > 100 µM (inactive) in each case. The GI50 in the test with XF498 and in the test on LXFL 529 was > 100 µM (inactive) each time.

Turning to `O=C1C=C(Nc2ccc(Cl)cc2C(=O)c2ccccc2)c2ccccc2C1=O`, the GI50 with HOP-18, in the test with SNB-78, in the test with DLD-1, in the test on DMS-273, in the test with RXF 631 and in the test on DMS-114 was > 100 µM (inactive) each time. Besides, the GI50 in the test on XF498 and with LXFL 529 was > 100 µM (inactive) throughout.

As for `COc1cc(Br)c(CC2NCCc3cc(OC)c(OC)cc32)cc1OC` (stereo not drawn), the GI50 in the test with SNB-78 was > 100 µM (inactive); in the test on DLD-1, > 100 µM (inactive); with M19-MEL it was 95.7 µM (inactive); in the test on XF498 it was 11.7 µM (inactive); with LXFL 529 it was 36.7 µM (inactive).

Turning to `CC1CN1C(=O)NCCCCCCNC(=O)N1CC1C` (stereo not drawn), the GI50 was > 100 µM (inactive) in the test with HOP-18; > 100 µM (inactive) in the test on DLD-1; 25.6 µM (inactive) with DMS-273; > 36.2 µM (inactive) with DMS-114; > 100 µM (inactive) in the test with M19-MEL; > 100 µM (inactive) in the test on XF498. Further, the GI50 with LXFL 529 was > 100 µM (inactive).

As for `O=c1c2ccccc2nc(-c2cccc(Cl)c2)n1NC1OC(CO)C(O)C(O)C1O` (stereo not drawn), the GI50 is 50.8 µM (inactive) in the test with HOP-18; > 100 µM (inactive) with SNB-78; > 100 µM (inactive) in the test on DMS-273; > 100 µM (inactive) with RXF 631; > 100 µM (inactive) in the test with DMS-114; > 100 µM (inactive) with M19-MEL. In addition, the GI50 with XF498 and with LXFL 529 was > 100 µM (inactive) throughout.
